Experimental data: US8426408B2, “Pyrimidine inhibitors of kinases” (AbbVie Inc., priority 2009, dated 2013)

Assays:
NCI-H1299 cells = assay: Induction of polyploidy in H1299; type: cell-based, Human; details: NCI-H1299, 48 hours; for EC15: Homo sapiens, read-out: EC15 (concentration of inhibitor necessary to induce polyploidy in 15% of cells)
In short: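 NCI-H1299 cells in RPMI 1640/10% FCS were treated with inhibitor concentrations in duplicate for 48 h at 37 C, then formalin-fixed and Hoechst-stained. Nuclear area was measured by high-content imaging, with polyploid (≥4N) defined as >750 μ^2. EC15 was derived by least-squares fit of log dose-response.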

Aurora A = biological target: T1, Aurora A (Homo sapiens, UniProt O14965); assay: Aurora A enzyme inhibition (time-resolved fluorescence, STK substrate-2); type: biochemical; details: 1 mM ATP
T1 sequence (O14965 1-403): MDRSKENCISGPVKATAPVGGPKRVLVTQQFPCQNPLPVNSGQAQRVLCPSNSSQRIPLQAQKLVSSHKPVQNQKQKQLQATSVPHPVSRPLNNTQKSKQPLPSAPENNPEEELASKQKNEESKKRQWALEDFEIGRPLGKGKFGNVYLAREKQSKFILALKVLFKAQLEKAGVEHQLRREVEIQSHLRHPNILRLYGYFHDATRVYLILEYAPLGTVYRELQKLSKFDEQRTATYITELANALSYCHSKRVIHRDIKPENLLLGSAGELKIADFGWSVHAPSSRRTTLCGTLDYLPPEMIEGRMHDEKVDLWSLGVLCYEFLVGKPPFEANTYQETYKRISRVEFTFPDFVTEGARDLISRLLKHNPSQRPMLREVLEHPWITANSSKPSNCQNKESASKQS
In short: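 Active enzyme incubated 1 h with biotinylated STK substrate-2, 1 mM ATP and inhibitor in Hepes pH 7.4 with MgCl2, orthovanadate and Triton X-100. EDTA stop; phosphopeptide detected by Eu-cryptate anti-phospho-STK/SA-XL665 TR-FRET (665/615 nm ratio); IC50 by exponential fit.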

## Cc1c(Nc2ncc(Br)c(N[C@H]3[C@@H](C(N)=O)[C@@H]4C=C[C@H]3C4)n2)cnn1C [Example 170, (1S,2S,3R,4R)-3-({5-bromo-2-[(1,5-dimethyl-1H-pyrazol-4-yl)amino]pyrimidin-4-yl}amino)bicyclo[2.2.1]hept-5-ene-2-carboxamide]
NCI-H1299 cells
  EC15: < 0.1 µM
Aurora A
  Ki: < 100 nM

## CN1CCN(CCn2cc(Nc3ncc(Cl)c(N[C@H]4[C@@H](C(N)=O)[C@@H]5C=C[C@H]4C5)n3)cn2)CC1 [Example 91, (1S,2S,3R,4R)-3-{[5-chloro-2-({1-[2-(4-methylpiperazin-1-yl)ethyl]-1H-pyrazol-4-yl}amino)pyrimidin-4-yl]amino}bicyclo[2.2.1]hept-5-ene-2-carboxamide]
NCI-H1299 cells
  EC15: < 0.1 µM
Aurora A
  Ki: < 100 nM

## COc1cccc(CCn2cc(Nc3ncc(Cl)c(N[C@H]4[C@@H](C(N)=O)[C@@H]5C=C[C@H]4C5)n3)cn2)c1 [Example 154, (1S,2S,3R,4R)-3-{[5-chloro-2-({1-[2-(3-methoxyphenyl)ethyl]-1H-pyrazol-4-yl}amino)pyrimidin-4-yl]amino}bicyclo[2.2.1]hept-5-ene-2-carboxamide]
NCI-H1299 cells
  EC15: < 0.1 µM
Aurora A
  Ki: < 100 nM

## Cn1cc(Nc2ncc(C(F)(F)F)c(Nc3ccsc3C(N)=O)n2)cn1 [Example 150, 3-({2-[(1-methyl-1H-pyrazol-4-yl)amino]-5-(trifluoromethyl)pyrimidin-4-yl}amino)thiophene-2-carboxamide]
NCI-H1299 cells
  EC15: < 0.1 µM
Aurora A
  Ki: < 100 nM

## NC(=O)[C@@H]1[C@H](Nc2nc(Nc3cnn(Cc4ccc5ccccc5c4)c3)ncc2Cl)[C@H]2C=C[C@@H]1C2 [Example 179, (1S,2S,3R,4R)-3-[(5-chloro-2-{[1-(2-naphthylmethyl)-1H-pyrazol-4-yl]amino}pyrimidin-4-yl)amino]bicyclo[2.2.1]hept-5-ene-2-carboxamide]
NCI-H1299 cells
  EC15: < 0.1 µM
Aurora A
  Ki: < 100 nM

## NC(=O)[C@@H]1[C@H](Nc2nc(Nc3cnn(Cc4ccccc4)c3)ncc2Cl)[C@H]2C=C[C@@H]1C2 [Example 144, (1S,2S,3R,4R)-3-({2-[(1-benzyl-1H-pyrazol-4-yl)amino]-5-chloropyrimidin-4-yl}amino)bicyclo[2.2.1]hept-5-ene-2-carboxamide]
NCI-H1299 cells
  EC15: < 0.1 µM
Aurora A
  Ki: < 100 nM

## NC(=O)[C@@H]1[C@H](Nc2nc(Nc3cnn(C[C@H](O)CO)c3)ncc2Br)[C@H]2C=C[C@@H]1C2 [Example 131, (1S,2S,3R,4R)-3-{[5-bromo-2-({1-[(2S)-2,3-dihydroxypropyl]-1H-pyrazol-4-yl}amino)pyrimidin-4-yl]amino}bicyclo[2.2.1]hept-5-ene-2-carboxamide]
NCI-H1299 cells
  EC15: < 0.1 µM
Aurora A
  Ki: < 100 nM

## CCn1cc(Nc2ncc([N+](=O)[O-])c(N[C@H]3[C@@H](C(N)=O)[C@@H]4C=C[C@H]3C4)n2)cn1 [Example 140, (1S,2S,3R,4R)-3-({2-[(1-ethyl-1H-pyrazol-4-yl)amino]-5-nitropyrimidin-4-yl}amino)bicyclo[2.2.1]hept-5-ene-2-carboxamide]
NCI-H1299 cells
  EC15: < 0.1 µM
Aurora A
  Ki: < 100 nM

## Cn1cc(Nc2ncc(Cl)c(Nc3ccccc3C3(O)CCC3)n2)cn1 [Example 101, 1-[2-({5-chloro-2-[(1-methyl-1H-pyrazol-4-yl)amino]pyrimidin-4-yl}amino)phenyl]cyclobutanol]
NCI-H1299 cells
  EC15: < 0.1 µM
Aurora A
  Ki: < 100 nM

## NC(=O)[C@@H]1[C@H](Nc2nc(Nc3cnn(C4CCC4)c3)ncc2Br)[C@H]2C=C[C@@H]1C2 [Example 123, (1S,2S,3R,4R)-3-({5-bromo-2-[(1-cyclobutyl-1H-pyrazol-4-yl)amino]pyrimidin-4-yl}amino)bicyclo[2.2.1]hept-5-ene-2-carboxamide]
NCI-H1299 cells
  EC15: < 0.1 µM
Aurora A
  Ki: < 100 nM

## NC(=O)[C@@H]1[C@H](Nc2nc(Nc3cnn(CCc4ccccc4)c3)ncc2Cl)[C@H]2C=C[C@@H]1C2 [Example 143, (1S,2S,3R,4R)-3-[(5-chloro-2-{[1-(2-phenylethyl)-1H-pyrazol-4-yl]amino}pyrimidin-4-yl)amino]bicyclo[2.2.1]hept-5-ene-2-carboxamide]
NCI-H1299 cells
  EC15: < 0.1 µM
Aurora A
  Ki: < 100 nM

## NC(=O)[C@@H]1[C@H](Nc2nc(Nc3cnn(Cc4ccccc4Cl)c3)ncc2Br)[C@H]2C=C[C@@H]1C2 [Example 171, (1S,2S,3R,4R)-3-[(5-bromo-2-{[1-(2-chlorobenzyl)-1H-pyrazol-4-yl]amino}pyrimidin-4-yl)amino]bicyclo[2.2.1]hept-5-ene-2-carboxamide]
NCI-H1299 cells
  EC15: < 0.1 µM
Aurora A
  Ki: < 100 nM

## CCn1cc(Nc2ncc(C(F)(F)F)c(N[C@@H]3[C@H](C(N)=O)[C@H]4C=C[C@@H]3C4)n2)cn1.CCn1cc(Nc2ncc(C(F)(F)F)c(N[C@H]3[C@@H](C(N)=O)[C@@H]4C=C[C@H]3C4)n2)cn1 (mixture of isomers) [Example 22, (1S,2S,3R,4R)-3-{[2-[(1-ethyl-1H-pyrazol-4-yl)amino]-5-(trifluoromethyl)pyrimidin-4-yl]amino}bicyclo[2.2.1]hept-5-ene-2-carboxamide and (1R,2R,3S,4S)-3-{[2-[(1-ethyl-1H-pyrazol-4-yl)amino]-5-(trifluoromethyl)pyrimidin-4-yl]amino}bicyclo[2.2.1]hept-5-ene-2-carboxamide]
NCI-H1299 cells
  EC15 (concentration of inhibitor necessary to induce polyploidy in 15% of cells): A (“A” represents an EC15 of less than 0.1 μM)
Aurora A
  Ki: < 100 nM

## NC(=O)[C@@H]1[C@H](Nc2nc(Nc3cnn(CC(=O)O)c3)ncc2Cl)[C@H]2C=C[C@@H]1C2 [Example 103, {4-[(4-{[(1R,2R,3S,4S)-3-carbamoylbicyclo[2.2.1]hept-5-ene-2-yl]amino}-5-chloropyrimidin-2-yl)amino]-1H-pyrazol-1-yl}acetic acid]
NCI-H1299 cells
  EC15: < 0.1 µM
Aurora A
  Ki: < 100 nM

## NC(=O)[C@@H]1CCC[C@@H]1Nc1nc(Nc2cnn(C3CCNCC3)c2)ncc1Cl.NC(=O)[C@H]1CCC[C@H]1Nc1nc(Nc2cnn(C3CCNCC3)c2)ncc1Cl (mixture of isomers) [Example 136, (1S,2R)-2-[(5-chloro-2-{[1-(piperidin-4-yl)-1H-pyrazol-4-yl]amino}pyrimidin-4-yl)amino]cyclopentanecarboxamide and (1R,2S)-2-[(5-chloro-2-{[1-(piperidin-4-yl)-1H-pyrazol-4-yl]amino}pyrimidin-4-yl)amino]cyclopentanecarboxamide]
NCI-H1299 cells
  EC15 (concentration of inhibitor necessary to induce polyploidy in 15% of cells): A (“A” represents an EC15 of less than 0.1 μM)
Aurora A
  Ki: < 100 nM

## CCn1cc(Nc2ncc(C(F)(F)F)c(N[C@H]3[C@@H](C(N)=O)C[C@H]4C[C@@H]3C4(C)C)n2)cn1 [Example 168, (1R,2R,3S,5R)-2-({2-[(1-ethyl-1H-pyrazol-4-yl)amino]-5-(trifluoromethyl)pyrimidin-4-yl}amino)-6,6-dimethylbicyclo[3.1.1]heptane-3-carboxamide]
NCI-H1299 cells
  EC15: < 0.1 µM
Aurora A
  Ki: < 100 nM

## CC(=O)N1CCC(n2cc(Nc3ncc(Cl)c(N[C@H]4[C@@H](C(N)=O)[C@@H]5C=C[C@H]4C5)n3)cn2)CC1 [Example 92, (1S,2S,3R,4R)-3-[(2-{[1-(1-acetylpiperidin-4-yl)-1H-pyrazol-4-yl]amino}-5-chloropyrimidin-4-yl)amino]bicyclo[2.2.1]hept-5-ene-2-carboxamide]
NCI-H1299 cells
  EC15: < 0.1 µM
Aurora A
  Ki: < 100 nM

## NC(=O)[C@@H]1[C@H](Nc2nc(Nc3cnn(CCc4ccccc4)c3)ncc2Br)[C@H]2C=C[C@@H]1C2 [Example 148, (1S,2S,3R,4R)-3-[(5-bromo-2-{[1-(2-phenylethyl)-1H-pyrazol-4-yl]amino}pyrimidin-4-yl)amino]bicyclo[2.2.1]hept-5-ene-2-carboxamide]
NCI-H1299 cells
  EC15: < 0.1 µM
Aurora A
  Ki: < 100 nM

## NC(=O)[C@@H]1[C@H](Nc2nc(Nc3cnn(Cc4ccccc4Cl)c3)ncc2Cl)[C@H]2C=C[C@@H]1C2 [Example 161, (1S,2S,3R,4R)-3-[(5-chloro-2-{[1-(2-chlorobenzyl)-1H-pyrazol-4-yl]amino}pyrimidin-4-yl)amino]bicyclo[2.2.1]hept-5-ene-2-carboxamide]
NCI-H1299 cells
  EC15: < 0.1 µM
Aurora A
  Ki: < 100 nM

## NC(=O)[C@@H]1[C@H](Nc2nc(Nc3cnn(Cc4cccc(Cl)c4)c3)ncc2Cl)[C@H]2C=C[C@@H]1C2 [Example 157, (1S,2S,3R,4R)-3-[(5-chloro-2-{[1-(3-chlorobenzyl)-1H-pyrazol-4-yl]amino}pyrimidin-4-yl)amino]bicyclo[2.2.1]hept-5-ene-2-carboxamide]
NCI-H1299 cells
  EC15: < 0.1 µM
Aurora A
  Ki: < 100 nM
